Measurements from article PMC5843811, “^44Sc for labeling of DOTA- and NODAGA-functionalized peptides: preclinical in vitro and in vivo investigations” (EJNMMI Radiopharmacy and Chemistry, 2016).
Read-outs that look alike come from different tables or passages of the source.

Experiments:
[1] = tested on: U87MG tumor-bearing mice; assay: PET/CT imaging of U87MG tumor-bearing mice; format: in vivo; conditions: 3 h after i.v. injection of ~10 MBq (~1 nmol), one or two mice
Procedure: The energy window was set to 150–650 keV. […] All static PET scans lasted for 20 min.

[2] = Biodistribution in U87MG tumor-bearing mice; format: in vivo; conditions: female, CD-1 nude (athymic nude), mouse, iv, total radioactivity, i.v. ~5 MBq (~1 nmol), mean ± SD; for tissue to tissue ratio at 0.5 h / tissue uptake at 0.5 h: 30 min p.i.; for tissue to tissue ratio at 2 h / tissue uptake at 2 h: 2 h p.i.; for tissue to tissue ratio at 5 h / tissue uptake at 5 h: 5 h p.i.
Procedure: Female athymic nude mice (CD-1 nude), age 5–6 weeks, were obtained from Charles River Laboratories, Sulzfeld, Germany. U87MG cells and AR42J-cells were suspended in PBS (5 × 10^6 cells in 100 μL) and subcutaneously inoculated on each shoulder. Two to three weeks later, when the tumor reached a size of about 300–500 mm^3, the mice were used for the in vivo studies.
Biodistribution studies were performed with U87MG tumor and AR42J tumor-bearing mice 2 weeks after tumor cell inoculation. ^44Sc- and ^68Ga-labeled peptides (~5 MBq, ~1 nmol per mouse) were intravenously injected in a volume of 100–200 μL. Mice were sacrificed at 30 min, 2 h and 5 h after injection (p.i.) of the ^44Sc-labeled peptides. Mice which were injected with ^68Ga-labeled peptides were sacrificed at 30 min and 2 h p.i. Selected tissues and organs were collected, weighed, and counted for radioactivity using a γ-counter (Wallac Wizard 1480, Perkin Elmer). The results were listed as a percentage of the injected activity per gram of tissue mass (% IA/g), using counts of a defined volume of the original injection solution counted at the same time. The data were analyzed for significance using a two-way ANOVA test (Graph Pad Prism 6 software, version 6.05). A p-value of < 0.05 was considered statistically significant.

[3] = U87MG tumor / blood, n=3, read-out: Tumor-to-blood ratio
[4] = U87MG tumor / kidneys, n=3, read-out: Tumor-to-kidney ratio
[5] = U87MG tumor / liver, n=3, read-out: Tumor-to-liver ratio
[6] = U87MG tumor, n=3, read-out: Biodistribution, U87MG Tumor
[7] = blood, 5 MBq per mouse, n=3, read-out: Biodistribution, Blood
[8] = bone, 5 MBq per mouse, n=3, read-out: Biodistribution, Bone
[9] = brain, 5 MBq per mouse, n=3, read-out: Biodistribution, Brain
[10] = heart, 5 MBq per mouse, n=3, read-out: Biodistribution, Heart
[11] = intestines, 5 MBq per mouse, n=3, read-out: Biodistribution, Intestines
[12] = kidneys, n=3, read-out: Biodistribution, Kidneys
[13] = liver, n=3, read-out: Biodistribution, Liver
[14] = lung, 5 MBq per mouse, n=3, read-out: Biodistribution, Lung
[15] = muscle, 5 MBq per mouse, n=3, read-out: Biodistribution, Muscle
[16] = pancreas, 5 MBq per mouse, n=3, read-out: Biodistribution, pancreas
[17] = skin, 5 MBq per mouse, n=3, read-out: Biodistribution, Skin
[18] = spleen, 5 MBq per mouse, n=3, read-out: Biodistribution, Spleen
[19] = stomach, 5 MBq per mouse, n=3, read-out: Biodistribution, Stomach

tissue to tissue ratio at 0.5 h [2, 3]: 4.82 ± 1.6
tissue to tissue ratio at 2 h [2, 3]: 40.1 ± 15.6
tissue to tissue ratio at 5 h [2, 3]: 47.2 ± 18
tissue to tissue ratio at 0.5 h [2, 4]: 1.16 ± 0.29
tissue to tissue ratio at 2 h [2, 4]: 1.77 ± 0.13
tissue to tissue ratio at 5 h [2, 4]: 1.82 ± 0.21
tissue to tissue ratio at 0.5 h [2, 5]: 0.99 ± 0.14
tissue to tissue ratio at 2 h [2, 5]: 0.61 ± 0.04
tissue to tissue ratio at 5 h [2, 5]: 2.9 ± 0.38
tissue uptake at 0.5 h [2, 6]: 4.88 ± 0.67 %ID/g
tissue uptake at 2 h [2, 6]: 2.99 ± 0.16 %ID/g
tissue uptake at 5 h [2, 6]: 3 ± 0.38 %ID/g
tissue uptake at 0.5 h [2, 7]: 1.1 ± 0.29 %ID/g
tissue uptake at 2 h [2, 7]: 0.08 ± 0.03 %ID/g
tissue uptake at 5 h [2, 7]: 0.07 ± 0.03 %ID/g
tissue uptake at 0.5 h [2, 8]: 1.17 ± 0.07 %ID/g
tissue uptake at 2 h [2, 8]: 0.56 ± 0.03 %ID/g
tissue uptake at 5 h [2, 8]: 0.52 ± 0.11 %ID/g
tissue uptake at 0.5 h [2, 9]: 0.12 ± 0.05 %ID/g
tissue uptake at 2 h [2, 9]: 0.06 ± 0.01 %ID/g
tissue uptake at 5 h [2, 9]: 0.06 ± 0.01 %ID/g
tissue uptake at 0.5 h [2, 10]: 0.96 ± 0.3 %ID/g
tissue uptake at 2 h [2, 10]: 0.31 ± 0.04 %ID/g
tissue uptake at 5 h [2, 10]: 0.3 ± 0.06 %ID/g
tissue uptake at 0.5 h [2, 11]: 1.88 ± 0.18 %ID/g
tissue uptake at 2 h [2, 11]: 1.01 ± 0.04 %ID/g
tissue uptake at 5 h [2, 11]: 1.07 ± 0.04 %ID/g
tissue uptake at 2 h ([2]; kidneys, 5 MBq per mouse, n=3, read-out: Biodistribution, Kidneys): 1.69 ± 0.09 %ID/g
tissue uptake at 0.5 h [2, 12]: 4.44 ± 0.51 %ID/g
tissue uptake at 5 h [2, 12]: < 2 %ID/g
tissue uptake at 0.5 h [2, 13]: 5.16 ± 0.99 %ID/g
tissue uptake at 2 h [2, 13]: 4.9 ± 0.13 %ID/g
tissue uptake at 5 h [2, 13]: ~1 %ID/g
tissue uptake at 0.5 h [2, 14]: 2.17 ± 0.7 %ID/g
tissue uptake at 2 h [2, 14]: 0.72 ± 0.11 %ID/g
tissue uptake at 5 h [2, 14]: 0.52 ± 0.04 %ID/g
tissue uptake at 0.5 h [2, 15]: 0.66 ± 0.26 %ID/g
tissue uptake at 5 h [2, 15]: 0.28 ± 0.04 %ID/g
tissue uptake at 2 h [2, 16]: 0.35 ± 0.03 %ID/g
tissue uptake at 5 h [2, 16]: 0.39 ± 0.02 %ID/g
tissue uptake at 0.5 h ([2]; pancreas, n=3, read-out: Biodistribution, pancreas): 0.94 ± 0.49 %ID/g
tissue uptake at 0.5 h [2, 17]: 2.28 ± 0.39 %ID/g
tissue uptake at 2 h [2, 17]: 1.23 ± 0.2 %ID/g
tissue uptake at 5 h [2, 17]: 0.97 ± 0.06 %ID/g
tissue uptake at 0.5 h [2, 18]: 3.66 ± 0.87 %ID/g
tissue uptake at 2 h [2, 18]: 2.82 ± 0.28 %ID/g
tissue uptake at 5 h [2, 18]: 1.06 ± 0.18 %ID/g
tissue uptake at 0.5 h [2, 19]: 1.78 ± 0.23 %ID/g
tissue uptake at 2 h [2, 19]: 0.84 ± 0.19 %ID/g
tissue uptake at 5 h [2, 19]: 0.72 ± 0.07 %ID/g
SMILES: N=C(N)NCCC[C@@H]1NC(=O)[C@H](CCCCNC(=O)CN2CCN(CC(=O)O)CCN(CC(=O)O)CCN(CC(=O)O)CC2)NC(=O)[C@@H](Cc2ccccc2)NC(=O)[C@H](CC(=O)O)NC(=O)CNC1=O [^44Sc-DOTA-RGD, metal not drawn]
PET/CT distribution of radioactivity (in words) [1]: clearly less accumulation of radioactivity in the liver than ^68Ga-DOTA-RGD
